pIC50: −log10 of the molar value. Like-named read-outs stand apart in the source and are kept apart here.
Legend:
[1] = system: human colon cancer DLD-1 xenografts; test: Tumor growth in nude mice bearing DLD-1 xenografts; type: in vivo
[2] = mice bearing LS174T xenografts
JAR xenografts = test: Tumor regression and survival of nude mice bearing large JAR xenografts, intratumoral injection; details: JAR xenografts (average 2,000 mg)
Procedure: Administration was by direct injection into the tupors at the designated daily dose, 5 doses/week. Anti-MDM2 oligonucleotide: AS5-2H (5 mg/kg/day, 5 injections); anti-MDM2 oligonucleotide (5 mg/kg)+HCPT (3 mg/kg); control (saline); HCPT: 3 mg/kg/day.
The tumor cell lines, SJSA and JAR, were cultured under the same conditions as in in vitro studies (Chen et al., PNAS 1998, supra). Human cancer xenograft models were established using the methods reported previously (Cai et al., Intl. J. Oncol. 10:953-960, 1997; and Zhang et al., Intl. J. Oncol. 10:1147-1156, 1997). Female nude mice (five week old) were used in the study. Cultured SJSA and JAR cells were harvested from the monolayer cultures, washed twice with DMEMF-12 HAM medium, resuspended in DMEM, and injected s.c. (20×10^6 cells, total volume 0.2 ml) into the left inguinal area of the mice. The animals were monitored by general clinical observation, body weight, and tumor growth. […] Animals with JAR cells were treated when the tumor size reached 2,000 mg. The animals bearing human cancer carcinoma xenografts were randomly divided into treatment groups and a control group (6-10 mice/group). Oligonucleotides dissolved in physiological saline (0.9% NaCl) were administered by ip injection at various daily doses, 5 consecutive days per week. The control group received physiological saline only. […]

DLD-1 cells = test: DLD-1 cell growth by trypan blue viability staining; type: cell-based, human; details: 72-hr treatment, Lipofectin, read-out: IC50, inhibition of tumor cell growth
Source text: (§1) Chemicals and Reagents. Cell culture media and phosphate-buffered saline (PBS) were obtained from Sigma Chemical Co. (St. Louis, Mo.). Fetal bovine serum (FBS), antibodies against p53 and p21, Lipofectin, trypsin, penicillin-streptomycin, and trypan blue stain were purchased from GIBCO-BRL (Grand Island, N.Y.). The anti-human-MDM2 monoclonal antibody (Chen L. et al., Proc Natl Acad Sci USA, 95: 195-200, 1998; Chen L. et al., Mol. Med. 5: 21-34, 1999) was kindly provided by J. Chen (Moffitt Cancer Center, Tampa, Fla.). Chemotherapeutic agents adriamycin and 5-fluorouracil (5-FU) were obtained from Sigma. […] The MDM2, p53 and p21 levels in cultured cells were analyzed by using the methods described previously (earlier (Chen L. et al., Proc Natl Acad Sci USA, 95: 195-200, 1998; Chen L. et al., Mol. Med. 5: 21-34, 1999; Wang H. et al., Int J. Oncol. 15: 653-660, 1999). In brief, cell lysate containing identical amounts of total protein were fractionated by SDS-PAGE and transferred to Bio-Rad Trans-Blot nitrocellulose membranes (Bio-Rad Laboratories, Hercules, Calif., USA). The nitrocellulose membrane was then incubated with blocking buffer (PBS containing 0.1% Tween 20 and 5% non-fat milk) for 1 hr at room temperature and washed with the washing buffer (PBS containing 0. […]

[3] = system: MDM2, p53 and p21 protein levels in DLD-1 cells; test: Western blot of MDM2, p53 and p21 in DLD-1 cells; type: cell-based, human; details: for inhibitory effect on MDM2 expression: Lipofectin
Source text: (§2) Chemicals and Reagents. Cell culture media and phosphate-buffered saline (PBS) were obtained from Sigma Chemical Co. (St. Louis, Mo.). Fetal bovine serum (FBS), antibodies against p53 and p21, Lipofectin, trypsin, penicillin-streptomycin, and trypan blue stain were purchased from GIBCO-BRL (Grand Island, N.Y.). The anti-human-MDM2 monoclonal antibody (Chen L. et al., Proc Natl Acad Sci USA, 95: 195-200, 1998; Chen L. et al., Mol. Med. 5: 21-34, 1999) was kindly provided by J. Chen (Moffitt Cancer Center, Tampa, Fla.). Chemotherapeutic agents adriamycin and 5-fluorouracil (5-FU) were obtained from Sigma. Natural product topoisomerase I inhibitor 10-hydroxycamptothecin (HCPT) was obtained from the Midwest Co. (Beijing, China) with the purity of the drug being greater than 98% (Zhang R. et al., Cancer Chemother Pharm 41: 257-267, 1998). Cell Culture. The tumor cell lines, LS174T and DLD-1 were obtained from the American Type Culture Collection (Rockville, Md.) and cultured according to their instructions. LS 174T cells were cultured in MEM with 0.1 mM nonessential amino acids and Earle's balanced salt solution containing 10% FBS and DLD-1 cells in RPMI 1640 medium containing 10% FBS. All media included 1% penicillin/streptomycin. […] Cells were incubated with Oligos AS or ASM at various concentrations for 72 hr, in the presence of Lipofectin (7 μg/ml). […] Western Blot Analysis. The MDM2, p53 and p21 levels in cultured cells were analyzed by using the methods described previously (earlier (Chen L. et al., Proc Natl Acad Sci USA, 95: 195-200, 1998; Chen L. et al., Mol. Med. 5: 21-34, 1999; Wang H. et al., Int J. Oncol. 15: 653-660, 1999). In brief, cell lysate containing identical amounts of total protein were fractionated by SDS-PAGE and transferred to Bio-Rad Trans-Blot nitrocellulose membranes (Bio-Rad Laboratories, Hercules, Calif., USA). The nitrocellulose membrane was then incubated with blocking buffer (PBS containing 0.1% Tween 20 and 5% non-fat milk) for 1 hr at room temperature and washed with the washing buffer (PBS containing 0. 1% Tween 20) for 5 min twice. The membrane was incubated with primary (anti-MDM2, anti-p53, or anti-p21) antibody overnight at 4° C. or for 1 hr at room temperature with gentle shaking. The membrane was washed with the washing buffer for 15 min and then twice for 5 min, and then incubated with 1:5000 diluted goat anti-mouse IgG-horse radish peroxidase conjugated antibody (Bio-Rad, Hercules, Calif.) for 1 hr at room temperature. After washing as described above the protein of interest was detected by ECL reagents from Amersham (Arlington Height, Ill.). Results. LS174T Model. In vitro inhibition of MDM2 expression by Oligo AS was shown in a sequence-specific, increasing dose-dependent manner (FIG. 19). […] Control oligonucleotide, Oligo ASM had no effect on MDM2, p53 or p21 protein levels at 500 nM, the highest concentration tested in the study.
Following in vitro combination treatment of Oligos and chemotherapeutic agents HCPT, adriamycin, and 5-FU, the protein levels of MDM2, p53 and p21 were determined in DLD-1 cells. Cells were incubated with 200 nM Oligo in the presence of Lipofectin for 24 hr, followed by addition of various concentrations of chemotherapeutic agents and incubation for an additional 24 hr.

[4] = mice bearing DLD-1 xenografts
[5] = system: MDM2, p53 and p21 protein levels in LS174T cells; test: Western blot of MDM2, p53 and p21 in LS174T cells; type: cell-based, human; details: 400 nM Oligo 24 hr
Source text: as §2
Following in vitro combination treatment of Oligos and chemotherapeutic agents HCPT, adriamycin, and 5-FU, the protein levels of MDM2, p53 and p21 were determined in LS174T cells. Cells were incubated with 400 nM Oligo in the presence of Lipofectin for 24 hr, followed by addition of various concentrations of chemotherapeutic agents and incubation for additional 24 hr.

[6] = system: MDM2, p53 and p21 protein levels in LS174T cells; test: Western blot of MDM2, p53 and p21 in LS174T cells; type: cell-based, human; details: 24 hr, Lipofectin
LS174T cells = test: LS174T cell growth by trypan blue viability staining; type: cell-based, human; details: 72 hr, Lipofectin 7 μg/ml, read-out: IC50, inhibition of tumor cell growth
Source text: as §1

Oligo AS: 20-mer mixed-backbone phosphorothioate oligonucleotide with 2′-O-methyl ends, 5′UGACACCTGTTCTCACUCAC-3′; SEQ ID NO:47 (mixed phosphorothioate backbone with 2'-O-methyl ends, pattern not given here)
xenograft pathology (tumor histology) [1]: histologically similar to control tumors except for modest increases in connective tissue with necrotic changes in tumor tissues
effect on in vivo tumor growth ([1]; 1 mg/kg/day): minimal effects
effect on in vivo tumor growth ([1]; daily ip doses 1, 10, 20 mg/kg): dose-dependent response
Ratio (%) of % T:C with oligo to % T:C without oligo ([2]/[1] or [3]/[1]) ([1]; day 3): 77%
Growth ratio % T:C ([1]; day 3, oligo 20, HCPT 3, 5-FU 10 mg/kg/day): 77.3%
Ratio (%) of % T:C with oligo to % T:C without oligo ([2]/[1] or [3]/[1]) ([1]; day 6): 72%
Growth ratio % T:C ([1]; day 6, oligo 20, HCPT 3, 5-FU 10 mg/kg/day): 72.0%
Ratio (%) of % T:C with oligo to % T:C without oligo ([2]/[1] or [3]/[1]) ([1]; day 9): 59%
Growth ratio % T:C ([1]; day 9, oligo 20, HCPT 3, 5-FU 10 mg/kg/day): 59.2%
Ratio (%) of % T:C with oligo to % T:C without oligo ([2]/[1] or [3]/[1]) ([1]; day 12): 41%
Growth ratio % T:C ([1]; day 12, oligo 20, HCPT 3, 5-FU 10 mg/kg/day): 41.2%
Ratio (%) of % T:C with oligo to % T:C without oligo ([2]/[1] or [3]/[1]) ([1]; day 15): 44%
Growth ratio % T:C ([1]; day 15, oligo 20, HCPT 3, 5-FU 10 mg/kg/day): 44.4%
Ratio (%) of % T:C with oligo to % T:C without oligo ([2]/[1] or [3]/[1]) ([1]; day 18): 47%
Growth ratio % T:C ([1]; day 18, oligo 20, HCPT 3, 5-FU 10 mg/kg/day): 46.7%
Ratio (%) of % T:C with oligo to % T:C without oligo ([2]/[1] or [3]/[1]) ([1]; day 21): 37%
Growth ratio % T:C ([1]; day 21 (end of experiment), oligo 20, HCPT 3, 5-FU 10 mg/kg/day): 36.8%
Survival Rates of Animals ([2]; day 3): 100%
Survival Rates of Animals ([2]; day 6): 100%
Survival Rates of Animals ([2]; day 9): 100%
Survival Rates of Animals ([2]; day 12): 100%
Survival Rates of Animals ([2]; day 15): 100%
Survival Rates of Animals ([2]; day 18): 100%
tumor regression (JAR xenografts; direct injection): tumor regression
animals surviving up to 4 weeks (JAR xenografts; direct injection into tumors, 5 mg/kg/day): 20%
pIC50 (DLD-1 cells): 6.85
protein levels of the mutant p53 [3]: No significant changes
MDM2, p53 and p21 protein levels, oligo pre-treatment then 5-FU ([3]; 200 nM Oligo 24 hr, then 5-FU 24 hr): MDM2 expression was inhibited, and p21 slightly induced
MDM2 and p21 protein levels, oligo pre-treatment then HCPT ([3]; 200 nM Oligo 24 hr, then HCPT 24 hr): MDM2 expression was inhibited, resulting in significant elevated p21 levels
MDM2 and p21 protein levels, oligo pre-treatment then adriamycin ([3]; 200 nM Oligo 24 hr, then adriamycin 24 hr): MDM2 expression was inhibited, resulting in significant elevated p21 levels
inhibitory effect on MDM2 expression ([3]; 200 nM, 24 hr): > 95%
p21 levels ([3]; 100 nm or higher): elevated
inhibitory effect on MDM2 expression ([3]; 500 and 1000 nM): approximately 80%
Survival Rates of Animals ([4]; day 3): 100%
Survival Rates of Animals ([4]; day 6): 100%
Survival Rates of Animals ([4]; day 9): 100%
Survival Rates of Animals ([4]; day 12): 100%
Survival Rates of Animals ([4]; day 15): 100%
Survival Rates of Animals ([4]; day 18): 100%
Survival Rates of Animals ([4]; day 21): 100%
MDM2, p53 and p21 protein levels, oligo pre-treatment then 5-FU ([5]; then 5-FU 24 hr): MDM2 expression was inhibited, resulting in significant elevated p53 and p21 levels
MDM2, p53 and p21 protein levels, oligo pre-treatment then HCPT ([5]; then HCPT 24 hr): MDM2 expression was inhibited, resulting in significant elevated p53 and p21 levels
MDM2, p53 and p21 protein levels, oligo pre-treatment then adriamycin ([5]; then adriamycin 24 hr): MDM2 expression was inhibited, resulting in significant elevated p53 and p21 levels
inhibition of MDM2 expression ([6]; 500 nM): greater than 90%
effect on MDM2, p53 and p21 protein levels ([6]; up to 500 nM): p53 and p21 levels elevated accordingly
pIC50 (LS174T cells): 6.49

— patent publication US6946447B2, “MDM2-specific antisense oligonucleotides” (Hybridon, Inc., priority 1997, dated 2005)
